Patent US20210395239A1 (Hoffmann-La Roche Inc., priority 2018, published 2021)

Target: T1, human TLR7 (Homo sapiens, UniProt Q9NYK1)
T1 construct: host or cells: HEK293 (HEK-Blue hTLR7)
T1 sequence (Q9NYK1 27-1049): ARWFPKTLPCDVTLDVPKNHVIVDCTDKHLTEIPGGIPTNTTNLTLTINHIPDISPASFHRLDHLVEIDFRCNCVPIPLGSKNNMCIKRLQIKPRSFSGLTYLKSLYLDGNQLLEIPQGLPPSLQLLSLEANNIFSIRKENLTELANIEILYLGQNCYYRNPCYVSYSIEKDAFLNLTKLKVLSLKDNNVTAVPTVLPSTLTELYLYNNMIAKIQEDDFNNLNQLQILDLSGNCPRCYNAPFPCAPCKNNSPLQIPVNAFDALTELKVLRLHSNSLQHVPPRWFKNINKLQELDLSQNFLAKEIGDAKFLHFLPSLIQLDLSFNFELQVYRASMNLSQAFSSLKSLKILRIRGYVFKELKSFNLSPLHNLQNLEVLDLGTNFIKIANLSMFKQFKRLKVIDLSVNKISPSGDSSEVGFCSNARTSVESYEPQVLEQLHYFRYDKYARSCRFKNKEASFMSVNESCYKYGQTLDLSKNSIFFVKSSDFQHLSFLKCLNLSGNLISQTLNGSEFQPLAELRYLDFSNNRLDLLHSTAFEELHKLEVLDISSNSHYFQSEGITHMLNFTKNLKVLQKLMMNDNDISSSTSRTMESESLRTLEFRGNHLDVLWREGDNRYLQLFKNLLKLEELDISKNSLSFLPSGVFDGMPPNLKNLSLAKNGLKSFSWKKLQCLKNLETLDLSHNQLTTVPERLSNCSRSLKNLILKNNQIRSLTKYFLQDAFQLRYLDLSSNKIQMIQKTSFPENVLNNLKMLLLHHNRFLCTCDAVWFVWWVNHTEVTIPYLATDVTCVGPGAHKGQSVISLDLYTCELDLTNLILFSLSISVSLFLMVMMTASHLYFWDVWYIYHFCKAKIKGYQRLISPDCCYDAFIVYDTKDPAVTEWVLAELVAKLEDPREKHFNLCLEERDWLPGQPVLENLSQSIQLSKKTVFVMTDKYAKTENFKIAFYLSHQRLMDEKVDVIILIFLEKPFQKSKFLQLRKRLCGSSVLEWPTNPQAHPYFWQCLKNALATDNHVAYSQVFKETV
Experiment: HEK293-Blue-hTLR-7 cells assay (SEAP reporter, R848 stimulation)
Format: cell-based
Conditions: HEK293-Blue-hTLR7 cells, R848, 20 hrs; read-out: HEK/hTLR7 IC50
From the text: HEK293-Blue-hTLR-7 Cells Assay:
A stable HEK293-Blue-hTLR-7 cell line was purchased from InvivoGen (Cat. #: hkb-ht1r7, San Diego, Calif., USA). These cells were originally designed for studying the stimulation of human TLR7 by monitoring the activation of NF-κB. A SEAP (secreted embryonic alkaline phosphatase) reporter gene was placed under the control of the IFN-β minimal promoter fused to five NF-κB and AP-1-binding sites. The SEAP was induced by activating NF-κB and AP-1 via stimulating HEK-Blue hTLR7 cells with TLR7 ligands. Therefore the reporter expression was declined by TLR7 antagonist under the stimulation of a ligand, such as R848 (Resiquimod), for incubation of 20 hrs. The cell culture supernatant SEAP reporter activity was determined using QUANTI-Blue™ kit (Cat. #: rep-qb1, Invivogen, San Diego, Ca, USA) at a wavelength of 640 nm, a detection medium that turns purple or blue in the presence of alkaline phosphatase.
HEK293-Blue-hTLR7 cells were incubated at a density of […] cells/mL in a volume of 170 μL in a 96-well plate in Dulbecco's Modified Eagle's medium (DMEM) containing 4.5 g/L glucose, 50 U/mL penicillin, […], […], 2 mM L-glutamine, 10% (v/v) heat-inactivated fetal bovine serum with addition of 20 μL test compound in a serial dilution in the presence of final DMSO at 1% and 10 μL of 20 uM R848 in above DMEM, perform incubation under 37° C. in a CO2 incubator for 20 hrs. Then 20 μL of the supernatant from each well was incubated with 180 μL Quanti-blue substrate solution at 37° C. for 2 hrs and the absorbance was read at 620˜655 nm using a spectrophotometer. The signaling pathway that TLR7 activation leads to downstream NF-κB activation has been widely accepted, and therefore similar reporter assay was modified for evaluating TLR7 antagonist.

| IC50 [nM] | SMILES |
| --- | --- |
| 10 | C[C@@H]1CN(c2ccc(C#N)c3ncccc23)C[C@H](CN2CCN(c3ccnc(N4C[C@H]5NCCO[C@@H]5C4)n3)CC2)O1 [Example 103, 5-[(2S,6R)-2-[[4-[2-[(4aR,7aR)-3,4,4a,5,7,7a-hexahydro-2H-pyrrolo[3,4-b][1,4]oxazin-6-yl]pyrimidin-4-yl]piperazin-1-yl]methyl]-6-methyl-morpholin-4-yl]quinoline-8-carbonitrile] |
| 54 | C[C@@H]1CN(c2ccc(C#N)c3ncccc23)C[C@H](CN2CCN(c3ccc(CN)cc3)CC2)O1 [Example 5, 5-[(2S,6R)-2-[[4-[4-(aminomethyl)phenyl]piperazin-1-yl]methyl]-6-methyl-morpholin-4-yl]quinoline-8-carbonitrile] |
| 4 | [2H]c1ccc2c(N3C[C@H](CN4CC(c5ccc(N6CC(C)(N)C6)cc5)C4)O[C@H](C)C3)ccc(C#N)c2n1 [Example 141, 5-[(2S,6R)-2-[[3-[4-(3-amino-3-methyl-azetidin-1-yl)phenyl]azetidin-1-yl]methyl]-6-methyl-morpholin-4-yl]-2-deuterio-quinoline-8-carbonitrile] |
| 5 | CO[C@@H]1CN(c2cc(C)nc(N3CCN(C[C@H]4CN(c5ccc(C#N)c6nccnc56)C[C@@H](C)O4)CC3)n2)C[C@@H]1N [Example 120, 8-[(2S,6R)-2-[[4-[4-[(3S,4R)-3-amino-4-methoxy-pyrrolidin-1-yl]-6-methyl-pyrimidin-2-yl]piperazin-1-yl]methyl]-6-methyl-morpholin-4-yl]quinoxaline-5-carbonitrile] |
| 18 | [2H]c1ccc2c(N3C[C@H](CN4CCN(c5cccc(N6CC(C)(N)C6)n5)CC4)O[C@H](C)C3)ccc(C#N)c2n1 [Example 155, 5-[(2S,6R)-2-[[4-[6-(3-amino-3-methyl-azetidin-1-yl)-2-pyridyl]piperazin-1-yl]methyl]-6-methyl-morpholin-4-yl]-2-deuterio-quinoline-8-carbonitrile] |
| 7 | C[C@@H]1CN(c2ccc(C#N)c3ncccc23)C[C@H](CN2CCN(c3ccnc(N4C[C@@H](F)[C@@H](N)C4)n3)CC2)O1 [Example 95, 5-[(2S,6R)-2-[[4-[2-[(3S,4R)-3-amino-4-fluoro-pyrrolidin-1-yl]pyrimidin-4-yl]piperazin-1-yl]methyl]-6-methyl-morpholin-4-yl]quinoline-8-carbonitrile] |
| 27 | CO[C@H]1CN(c2ccnc(N3CCN(C[C@H]4CN(c5ccc(C#N)c6ncccc56)C[C@@H](C)O4)CC3)n2)C[C@@H]1N [Example 97, 5-[(2S,6R)-2-[[4-[4-[(3S,4S)-3-amino-4-methoxy-pyrrolidin-1-yl]pyrimidin-2-yl]piperazin-1-yl]methyl]-6-methyl-morpholin-4-yl]quinoline-8-carbonitrile] |
| 21 | Cc1ccc(N2C[C@H](CN3CCN(c4ccnc(N5CC6(CNCCO6)C5)n4)CC3)O[C@H](C)C2)c2nccnc12 [Example 126, 2-[4-[4-[[(2S,6R)-6-methyl-4-(8-methylquinoxalin-5-yl)morpholin-2-yl]methyl]piperazin-1-yl]pyrimidin-2-yl]-5-oxa-2,8-diazaspiro[3.5]nonane] |
| 3 | C[C@@H]1CN(c2ccc(C#N)c3nccnc23)C[C@H](CN2CCN(c3ccnc(N4CC[C@H](N)[C@H](F)C4)n3)CC2)O1 [Example 111, 8-[(2S,6R)-2-[[4-[2-[(3R,4S)-4-amino-3-fluoro-1-piperidyl]pyrimidin-4-yl]piperazin-1-yl]methyl]-6-methyl-morpholin-4-yl]quinoxaline-5-carbonitrile] |
| 20 | [2H]c1ccc2c(N3C[C@H](CN4CCN(c5ncc(N6C[C@@H](N)[C@H](OC)C6)cc5C)CC4)O[C@H](C)C3)ccc(C#N)c2n1 [Example 142, 5-[(2S,6R)-2-[[4-[5-[(3R,4R)-3-amino-4-methoxy-pyrrolidin-1-yl]-3-methyl-2-pyridyl]piperazin-1-yl]methyl]-6-methyl-morpholin-4-yl]-2-deuterio-quinoline-8-carbonitrile] |
| 4 | C[C@@H]1CN(c2ccc(C#N)c3nccnc23)C[C@H](CN2CCN(c3nccc(N4CC(N)C4)n3)CC2)O1 [Example 118, 8-[(2S,6R)-2-[[4-[4-(3-aminoazetidin-1-yl)pyrimidin-2-yl]piperazin-1-yl]methyl]-6-methyl-morpholin-4-yl]quinoxaline-5-carbonitrile] |
| 8 | C[C@@H]1CN(c2ccc(C#N)c3nccnc23)C[C@H](CN2CCN(c3ccnc(N4CC[C@@H](N)[C@H](F)C4)n3)CC2)O1 [Example 113, 8-[(2S,6R)-2-[[4-[2-[(3R,4R)-4-amino-3-fluoro-1-piperidyl]pyrimidin-4-yl]piperazin-1-yl]methyl]-6-methyl-morpholin-4-yl]quinoxaline-5-carbonitrile] |
| 19 | [2H]c1ccc2c(N3C[C@H](CN4CCN(c5ccc(N6CC(C)(N)C6)nc5C)CC4)O[C@H](C)C3)ccc(C#N)c2n1 [Example 137, 5-[(2S,6R)-2-[[4-[6-(3-amino-3-methyl-azetidin-1-yl)-2-methyl-3-pyridyl]piperazin-1-yl]methyl]-6-methyl-morpholin-4-yl]-2-deuterio-quinoline-8-carbonitrile] |
| 12 | COC1CN(c2nccc(N3CCN(C[C@H]4CN(c5ccc(C#N)c6ncccc56)C[C@@H](C)O4)CC3)n2)CC1N (stereo in doubt) [Example 93, 5-[(2S,6R)-2-[[4-[2-[(3R,4S)-3-amino-4-methoxy-pyrrolidin-1-yl]pyrimidin-4-yl]piperazin-1-yl]methyl]-6-methyl-morpholin-4-yl]quinoline-8-carbonitrile] |
| 5 | [2H]c1ccc2c(N3C[C@H](CN4CC(c5ccc(N6CC(C)(N)C6)nc5)C4)O[C@H](C)C3)ccc(C#N)c2n1 [Example 138, 5-[(2S,6R)-2-[[3-[6-(3-amino-3-methyl-azetidin-1-yl)-3-pyridyl]azetidin-1-yl]methyl]-6-methyl-morpholin-4-yl]-2-deuterio-quinoline-8-carbonitrile] |
| 5 | C[C@@H]1CN(c2ccc(C#N)c3nccnc23)C[C@H](CN2CCN(c3ccnc(N4C[C@@H](N)[C@@H](F)C4)n3)CC2)O1 [Example 108, 8-[(2S,6R)-2-[[4-[2-[(3R,4S)-3-amino-4-fluoro-pyrrolidin-1-yl]pyrimidin-4-yl]piperazin-1-yl]methyl]-6-methyl-morpholin-4-yl]quinoxaline-5-carbonitrile] |
| 22 | [2H]c1ccc2c(N3C[C@H](CN4CC(c5ccc(N6C[C@H](OC)[C@@H](N)C6)cc5)C4)O[C@H](C)C3)ccc(C#N)c2n1 [Example 140, 5-[(2S,6R)-2-[[3-[4-[(3S,4S)-3-amino-4-methoxy-pyrrolidin-1-yl]phenyl]azetidin-1-yl]methyl]-6-methyl-morpholin-4-yl]-2-deuterio-quinoline-8-carbonitrile] |
| 7 | [2H]c1ccc2c(N3C[C@H](CN4CCN(c5nc(C)cc(N6CC(N)C6)n5)CC4)O[C@H](C)C3)ccc(C#N)c2n1 [Example 136, 5-[(2S,6R)-2-[[4-[4-(3-aminoazetidin-1-yl)-6-methyl-pyrimidin-2-yl]piperazin-1-yl]methyl]-6-methyl-morpholin-4-yl]-2-deuterio-quinoline-8-carbonitrile] |
